According to ChEMBL document CHEMBL3046835, “Insecticidal activity influence of beta-cypermethrin on the pathogenicity of Beauveria bassiana against Aleurodicus disperses” (Crop Prot, 2013):

Experiments:
Type in all cases: functional
Aleurodicus dispersus [1] = assay: Insecticidal activity against third-instar nymph stage of Aleurodicus dispersus in guava plant leaves assessed as mortality at 8 mg/l measured after 6 days under laboratory conditions (reference value: 3%); settings: 144 h
Aleurodicus dispersus [2] = assay: Insecticidal activity against third-instar nymph stage of Aleurodicus dispersus in guava plant leaves assessed as mortality at 4 mg/l measured after 6 days under laboratory conditions (reference value: 3%); settings: 144 h
Aleurodicus dispersus [3] = assay: Insecticidal activity against third-instar nymph stage of Aleurodicus dispersus in guava plant leaves assessed as mortality at 2 mg/l measured after 6 days under laboratory conditions (reference value: 3%); settings: 144 h
Aleurodicus dispersus [4] = assay: Insecticidal activity against third-instar nymph stage of Aleurodicus dispersus in guava leaves assessed as mortality at 10 mg/l treated for 15 s measured at 27 +/-2 degC after 24 hr (reference value: 2%)
Aleurodicus dispersus [5] = assay: Insecticidal activity against third-instar nymph stage of Aleurodicus dispersus in guava leaves assessed as mortality at 5 mg/l treated for 15 s measured at 27 +/-2 degC after 24 hr (reference value: 2%)
Aleurodicus dispersus [6] = assay: Insecticidal activity against third-instar nymph stage of Aleurodicus dispersus in guava leaves assessed as mortality at 2.5 mg/l treated for 15 s measured at 27 +/-2 degC after 24 hr (reference value: 2%)
Aleurodicus dispersus [7] = assay: Insecticidal activity against third-instar nymph stage of Aleurodicus dispersus in guava plant leaves assessed as mortality at 4 mg/l measured after 9 days under laboratory conditions (reference value: 3%); settings: 216 h
Aleurodicus dispersus [8] = assay: Insecticidal activity against third-instar nymph stage of Aleurodicus dispersus in guava plant leaves assessed as mortality at 2 mg/l measured after 9 days under laboratory conditions (reference value: 3%); settings: 216 h
Aleurodicus dispersus [9] = assay: Insecticidal activity against third-instar nymph stage of Aleurodicus dispersus in guava plant leaves assessed as mortality at 8 mg/l measured after 9 days in presence of 10^8 Beauveria bassiana conidial suspension under laboratory conditions (reference value: 45.7 +/-3.18%); settings: 216 h
Aleurodicus dispersus [10] = assay: Insecticidal activity against third-instar nymph stage of Aleurodicus dispersus in guava plant leaves assessed as mortality at 4 mg/l measured after 9 days in presence of 10^8 Beauveria bassiana conidial suspension under laboratory conditions (reference value: 45.7 +/-3.18%); settings: 216 h
Aleurodicus dispersus [11] = assay: Insecticidal activity against third-instar nymph stage of Aleurodicus dispersus in guava plant leaves assessed as mortality at 2 mg/l measured after 9 days in presence of 10^8 Beauveria bassiana conidial suspension under laboratory conditions (reference value: 45.7 +/-3.18%); settings: 216 h
Aleurodicus dispersus [12] = assay: Insecticidal activity against third-instar nymph stage of Aleurodicus dispersus in guava plant leaves assessed as mortality at 8 mg/L applied via hand sprayer measured after 9 days under field conditions (reference value: 4%); settings: 216 h
Aleurodicus dispersus [13] = assay: Insecticidal activity against third-instar nymph stage of Aleurodicus dispersus in guava plant leaves assessed as mortality at 4 mg/L applied via hand sprayer measured after 9 days under field conditions (reference value: 4%); settings: 216 h
Aleurodicus dispersus [14] = assay: Insecticidal activity against third-instar nymph stage of Aleurodicus dispersus in guava plant leaves assessed as mortality at 2 mg/L applied via hand sprayer measured after 9 days under field conditions (reference value: 4%); settings: 216 h
Aleurodicus dispersus [15] = assay: Insecticidal activity against third-instar nymph stage of Aleurodicus dispersus in guava plant leaves assessed as mortality at 8 mg/L applied via hand sprayer measured after 9 days in presence of 10^8 Beauveria bassiana conidial suspension under field conditions (reference value: 42.3 +/-3.58%); settings: 216 h
Aleurodicus dispersus [16] = assay: Insecticidal activity against third-instar nymph stage of Aleurodicus dispersus in guava plant leaves assessed as mortality at 4 mg/L applied via hand sprayer measured after 9 days in presence of 10^8 Beauveria bassiana conidial suspension under field conditions (reference value: 42.3 +/-3.58%); settings: 216 h
Aleurodicus dispersus [17] = assay: Insecticidal activity against third-instar nymph stage of Aleurodicus dispersus in guava plant leaves assessed as mortality at 2 mg/L applied via hand sprayer measured after 9 days in presence of 10^8 Beauveria bassiana conidial suspension under field conditions (reference value: 42.3 +/-3.58%); settings: 216 h
Aleurodicus dispersus [18] = assay: Insecticidal activity against third-instar nymph stage of Aleurodicus dispersus in guava plant leaves assessed as mortality at 8 mg/L applied via hand sprayer measured after 6 days under field conditions (reference value: 3.5%); settings: 144 h
Aleurodicus dispersus [19] = assay: Insecticidal activity against third-instar nymph stage of Aleurodicus dispersus in guava plant leaves assessed as mortality at 4 mg/L applied via hand sprayer measured after 6 days under field conditions (reference value: 3.5%); settings: 144 h
Aleurodicus dispersus [20] = assay: Insecticidal activity against third-instar nymph stage of Aleurodicus dispersus in guava plant leaves assessed as mortality at 2 mg/L applied via hand sprayer measured after 6 days under field conditions (reference value: 3.5%); settings: 144 h
Aleurodicus dispersus [21] = assay: Insecticidal activity against third-instar nymph stage of Aleurodicus dispersus in guava plant leaves assessed as mortality at 8 mg/L applied via hand sprayer measured after 6 days in presence of 10^8 Beauveria bassiana conidial suspension under field conditions (reference value: 26.9 +/-3.04%); settings: 144 h
Aleurodicus dispersus [22] = assay: Insecticidal activity against third-instar nymph stage of Aleurodicus dispersus in guava plant leaves assessed as mortality at 4 mg/L applied via hand sprayer measured after 6 days in presence of 10^8 Beauveria bassiana conidial suspension under field conditions (reference value: 26.9 +/-3.04%); settings: 144 h
Aleurodicus dispersus [23] = assay: Insecticidal activity against third-instar nymph stage of Aleurodicus dispersus in guava plant leaves assessed as mortality at 2 mg/L applied via hand sprayer measured after 6 days in presence of 10^8 Beauveria bassiana conidial suspension under field conditions (reference value: 26.9 +/-3.04%); settings: 144 h
Aleurodicus dispersus [24] = assay: Insecticidal activity against third-instar nymph stage of Aleurodicus dispersus in guava plant leaves assessed as mortality at 8 mg/L applied via hand sprayer measured after 3 days under field conditions (reference value: 3%); settings: 72 h
Aleurodicus dispersus [25] = assay: Insecticidal activity against third-instar nymph stage of Aleurodicus dispersus in guava plant leaves assessed as mortality at 4 mg/L applied via hand sprayer measured after 3 days under field conditions (reference value: 3%); settings: 72 h
Aleurodicus dispersus [26] = assay: Insecticidal activity against third-instar nymph stage of Aleurodicus dispersus in guava plant leaves assessed as mortality at 2 mg/L applied via hand sprayer measured after 3 days under field conditions (reference value: 3%); settings: 72 h
Aleurodicus dispersus [27] = assay: Insecticidal activity against third-instar nymph stage of Aleurodicus dispersus in guava plant leaves assessed as mortality at 8 mg/L applied via hand sprayer measured after 3 days in presence of 10^8 Beauveria bassiana conidial suspension under field conditions (reference value: 22.2 +/-3.15%); settings: 72 h
Aleurodicus dispersus [28] = assay: Insecticidal activity against third-instar nymph stage of Aleurodicus dispersus in guava plant leaves assessed as mortality at 4 mg/L applied via hand sprayer measured after 3 days in presence of 10^8 Beauveria bassiana conidial suspension under field conditions (reference value: 22.2 +/-3.15%); settings: 72 h
Aleurodicus dispersus [29] = assay: Insecticidal activity against third-instar nymph stage of Aleurodicus dispersus in guava plant leaves assessed as mortality at 2 mg/L applied via hand sprayer measured after 3 days in presence of 10^8 Beauveria bassiana conidial suspension under field conditions (reference value: 22.2 +/-3.15%); settings: 72 h
Aleurodicus dispersus [30] = assay: Insecticidal activity against third-instar nymph stage of Aleurodicus dispersus in guava plant leaves assessed as mortality at 8 mg/l measured after 9 days under laboratory conditions (reference value: 3%); settings: 216 h

CC1(C)[C@H](C=C(Cl)Cl)[C@H]1C(=O)O[C@@H](C#N)c1cccc(Oc2ccccc2)c1 [BETA-CYPERMETHRIN]
mortality at 8 µg/mL (Aleurodicus dispersus [1]): 39.3% | mortality at 4 µg/mL (Aleurodicus dispersus [2]): 34.1% | mortality at 2 µg/mL (Aleurodicus dispersus [3]): 28.7% | mortality at 10 µg/mL (Aleurodicus dispersus [4]): 23.1% | mortality at 5 µg/mL (Aleurodicus dispersus [5]): 16.2% | mortality at 2.5 µg/mL (Aleurodicus dispersus [6]): 9.1% | mortality at 4 µg/mL (Aleurodicus dispersus [7]): 34.1% | mortality at 2 µg/mL (Aleurodicus dispersus [8]): 28.7% | mortality at 8 µg/mL (Aleurodicus dispersus [9]): 80.6% | mortality at 4 µg/mL (Aleurodicus dispersus [10]): 77.6% | mortality at 2 µg/mL (Aleurodicus dispersus [11]): 75.3% | mortality at 8 µg/mL (Aleurodicus dispersus [12]): 29.4% | mortality at 4 µg/mL (Aleurodicus dispersus [13]): 26.7% | mortality at 2 µg/mL (Aleurodicus dispersus [14]): 20.9% | mortality at 8 µg/mL (Aleurodicus dispersus [15]): 63.7% | mortality at 4 µg/mL (Aleurodicus dispersus [16]): 62.4% | mortality at 2 µg/mL (Aleurodicus dispersus [17]): 54.2% | mortality at 8 µg/mL (Aleurodicus dispersus [18]): 29.4% | mortality at 4 µg/mL (Aleurodicus dispersus [19]): 26.7% | mortality at 2 µg/mL (Aleurodicus dispersus [20]): 20.9% | mortality at 8 µg/mL (Aleurodicus dispersus [21]): 62.2% | mortality at 4 µg/mL (Aleurodicus dispersus [22]): 60.5% | mortality at 2 µg/mL (Aleurodicus dispersus [23]): 50.9% | mortality at 8 µg/mL (Aleurodicus dispersus [24]): 29.4% | mortality at 4 µg/mL (Aleurodicus dispersus [25]): 26.7% | mortality at 2 µg/mL (Aleurodicus dispersus [26]): 20.9% | mortality at 8 µg/mL (Aleurodicus dispersus [27]): 42.3% | mortality at 4 µg/mL (Aleurodicus dispersus [28]): 37.6% | mortality at 2 µg/mL (Aleurodicus dispersus [29]): 32.3% | mortality at 8 µg/mL (Aleurodicus dispersus [30]): 39.3%
